Data taken from article PMC11167047 (Cell Death Discovery, 2024).
Where two headings read alike, the source gives them in different places.

What was measured:
[1] = test system: MOLT4; conditions: read-out: IC50 (MOLT4); cytotoxicity, 24 h
Procedure: (§1) The resazurin reduction assay, which is also known as AlamarBlue® assay, was used for the determination of cell viability in all cytotoxicity determinations shown in the present work, as previously described [22]. Briefly, cells were seeded at a specific density depending on the incubation time (24 h: 1 × 10^6 cells/ml) in a 96-well plate and incubated with increasing compound concentrations (0.01–30 µM). After the specified treatment time, resazurin (Sigma, #R7017) was added to a final concentration of 40 µM. […] The viability of control cells was set to 100% and all other values were normalized to the control condition, the dose-response curves were then fitted with Prism v7.01 (GraphPad software, La Jolla, CA, USA). The reduction of resazurin to resorufin is proportional to aerobic respiration; therefore, it is used as a measure for the cell viability and cytotoxicity of a tested compound.

[2] = test system: retinoblastoma (RB) protein phosphorylation; experiment: immunopurification of RB from Ramos cells; assay type: cell-based, human
Procedure: For immunopurification (IP) the Dynabeads^TM Protein G Immunoprecipitation kit from Invitrogen (#10007D) was used. For IP, 2 × 10^6 cells were seeded in a 24-well plate and treated with the appropriate compound. After incubation, cells were lysed with NP-40 containing lysis buffer (Hepes-NaOH 50 mM pH 7.5, NaCl 150 mM, NP-40 1% v/v, MgCl2 2.5 mM, 1x Protease inhibitor (cOmplete^TM, EDTA-free Protease Inhibitor Cocktail), 1x Phosphatase Inhibitor (PhosSTOP^TM)) for 30 min. A protein content of 50 µg per IP was used, the protein concentration was measured by Bradford assay (Bio-Rad #5000006) with the photometer. Protein G is conjugated to the magnetic Dynabeads^TM. In the first step, the Dynabeads^TM were incubated for 10 min with the specific RB antibody (Abcam #ab181616; rabbit), which was used in a dilution of 1:80. The antibody bound to the conjugated protein G and a bead-antibody complex was formed. By placing the tube on a magnet, the beads were easily separated from the solution and the supernatant could be removed. The bead-antibody complex was washed once with Ab binding and washing buffer. In the second step, the cell lysate was incubated for 10 min with the bead-antibody complex to allow the RB protein from the lysate to bind to the antibody. The bead complex was washed several times with washing buffer by placing the tube on the magnet and removing the supernatant. […]

[3] = test system: FL303 follicular lymphoma cells; conditions: read-out: IC50 (FL303); primary patient cells, 24 h
Source text: (§2) For chronic lymphocytic leukemia, mononuclear cells were isolated from peripheral blood using a Ficoll gradient (GE Healthcare). Primary cells from other lymphoma entities were isolated as previously described [80]. All cells were cryopreserved after isolation and thawed as previously described [81].
as §1

[4] = molecular target: T1, DYRK4 (Homo sapiens, UniProt Q9NR20); experiment: kinome screen (33PanQinase); assay type: biochemical
T1 construct: purchased Reaction Biology Europe GmbH (formerly ProQinase)
T1 sequence (Q9NR20 1-520): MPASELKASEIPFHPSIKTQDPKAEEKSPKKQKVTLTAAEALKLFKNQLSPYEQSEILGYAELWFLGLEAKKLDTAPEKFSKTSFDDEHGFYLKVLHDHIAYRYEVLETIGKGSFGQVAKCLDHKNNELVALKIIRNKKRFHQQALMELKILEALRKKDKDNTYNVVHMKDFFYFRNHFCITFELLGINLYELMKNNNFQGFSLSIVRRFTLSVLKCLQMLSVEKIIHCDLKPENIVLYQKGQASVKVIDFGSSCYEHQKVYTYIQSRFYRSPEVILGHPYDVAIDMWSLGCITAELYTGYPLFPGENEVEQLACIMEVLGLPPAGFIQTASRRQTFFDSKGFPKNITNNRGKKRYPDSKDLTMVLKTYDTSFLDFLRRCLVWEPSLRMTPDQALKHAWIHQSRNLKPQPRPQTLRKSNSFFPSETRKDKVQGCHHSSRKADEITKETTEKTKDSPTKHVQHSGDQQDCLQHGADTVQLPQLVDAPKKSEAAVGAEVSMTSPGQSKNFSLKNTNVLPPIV
Procedure: The Kinome Screening was performed by Reaction Biology Europe GmbH (http://reactionbiology.com; Freiburg i. Br., Germany). […] A kinase inhibition profile of the three meriolins was determined by measuring residual activity at two concentrations each in single values in 335 wild-type protein kinase assays.
The residual activity was calculated as: Res.Activity%=100x(Signalofcompound−lowcontrol/highcontrol−lowcontrol)

[5] = test system: HPBALL; conditions: read-out: IC50 (HPBALL); cytotoxicity, 24 h
Procedure: as §1

[6] = test system: FL100 follicular lymphoma cells; conditions: read-out: IC50 (FL100); primary patient cells, 24 h
Source text: as §2
The resazurin reduction assay, which is also known as AlamarBlue® assay, was used for the determination of cell viability in all cytotoxicity determinations shown in the present work, as previously described [22]. Briefly, cells were seeded at a specific density depending on the incubation time (24 h: 1 × 10^6 cells/ml) in a 96-well plate and incubated with increasing compound concentrations (0.01–30 µM). After the specified treatment time, resazurin (Sigma, #R7017) was added to a final concentration of 40 µM. […] The viability of control cells was set to 100% and all other values were normalized to the control condition, the dose-response curves were then fitted with Prism v7.01 (GraphPad software, La Jolla, CA, USA).

[7] = test system: Ramos; experiment: AlamarBlue viability assay; assay type: cell-based, human; conditions: cytotoxicity, 24 h, read-out: IC50 (Ramos)
Procedure: as §1

| Structure (SMILES) | IC50 [1] | phosphorylation of RB at p-Ser612 and p-Thr821 (immunopurified RB) ([2]; 1 µM, 4 h) | phosphorylation of RB at p-Ser612 and p-Thr821 (immunopurified RB) ([2]; 24 h) | IC50 [3] | residual kinase activity ([4]; 0.03 µM) | residual kinase activity ([4]; 0.3 µM) | IC50 [5] | IC50 [6] | IC50 ([7]; as given in text) | IC50 ([7]; listed as Meriolin 16) | IC50 [7] | residual kinase activity ([4]; 3 µM) |
| --- | --- | --- | --- | --- | --- | --- | --- | --- | --- | --- | --- | --- |
| COc1ccnc2[nH]cc(-c3cc(N)nc(N)c3)c12 [meriolin 16] | 20 nM | less phosphorylated | completely abrogated | 60 nM | 39 % of control | 7 % of control | 20 nM | 60 nM | 20 to 30 nM | 20 nM | 30 nM |  |
| c1ccc(CNc2cc(-c3c[nH]c4ncccc34)ccn2)cc1 [meriolin 36] | 3480 nM |  |  | 170 nM |  | 66 % of control | 3440 nM | 90 nM |  |  |  | 22 % of control |
